The source of these data is ChEMBL document CHEMBL3352694, “Structure-activity relationships (SAR) and structure-kinetic relationships (SKR) of bicyclic heteroaromatic acetic acids as potent CRTh2 antagonists I” (Bioorg Med Chem Lett, 2014).

Data set [1] addresses T1, Prostaglandin D2 receptor 2 (Homo sapiens, UniProt Q9Y5Y4).
T1 sequence (Q9Y5Y4 whole entry): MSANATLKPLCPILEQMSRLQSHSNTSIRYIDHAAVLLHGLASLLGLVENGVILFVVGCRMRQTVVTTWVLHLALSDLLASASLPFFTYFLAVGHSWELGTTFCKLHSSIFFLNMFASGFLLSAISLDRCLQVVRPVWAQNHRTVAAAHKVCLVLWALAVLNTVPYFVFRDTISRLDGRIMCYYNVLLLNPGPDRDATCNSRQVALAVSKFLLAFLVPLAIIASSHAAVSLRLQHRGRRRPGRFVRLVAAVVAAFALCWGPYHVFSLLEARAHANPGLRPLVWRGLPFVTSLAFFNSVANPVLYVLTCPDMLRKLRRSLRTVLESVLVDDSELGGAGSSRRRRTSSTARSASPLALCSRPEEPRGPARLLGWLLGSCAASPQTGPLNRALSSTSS
The data set can be described thus: Antagonist activity at CRTh2 receptor (unknown origin) overexpressed in CHOK1 cell membranes assessed as inhibition of [35S]-GTPgammaS binding at 1 to 5 uM preincubated for 1 hr followed by 50 nM PGD2 and 0.1 nM [35S]-GTPgammaS addition measured after 2 hrs by liquid scintillation counting analysis relative to control. Format: functional, CHO-K1.

Data set [2] has as its target T2, Prostaglandin D2 receptor 2 (Homo sapiens) (UniProt Q9Y5Y4).
T2 sequence (whole entry): T1 sequence (Q9Y5Y4 whole entry)
The note with it: CHO-K1.
Description: Binding affinity to CRTh2 receptor (unknown origin) overexpressed in CHOK1 cell membranes assessed as dissociation half life at 10 X IC50 preincubated for 1 hr followed [35S]-GTPgammaS addition measured after 2 hrs by liquid scintillation counting analysis

Data set [3] can be described thus: Clearance in rat at 1 mg/kg. Further details: dose 1 mg/kg. The note with it: in vivo. Format: ADME, organism-based.
Data set [4] can be described thus: Terminal half life in rat at 1 mg/kg. Format: ADME, organism-based. Details: dose 1 mg/kg. The note with it: in vivo, read-out: beta t1/2 (converted).
A short description of data set [5]: Volume of distribution at steady state in rat at 1 mg/kg. The note with it: in vivo, read-out: Vdss. In kind it is ADME, organism-based. Details: dose 1 mg/kg.
A short description of data set [6]: Lipophilicity, log D of the compound at pH 7.4 by shake flask method. In kind it is physicochemical. The note with it: buffer.
Data set [7] can be described thus: Drug metabolism in rat liver microsomes assessed as phase-2 metabolism measured by glucuronidation level at 5 uM in presence of UDPGA after 2 hrs at 37 degC. Format: ADME. The note with it: read-out: Drug metabolism.
The nature of data set [8]: Drug metabolism in human liver microsomes at 5 uM in presence of NADPH after 30 mins at 37 degC. Format: ADME. The note with it: read-out: Drug metabolism.
The nature of data set [9]: Cmax in rat at 1 mg/kg. In kind it is ADME, organism-based. Further details: dose 1 mg/kg. The note with it: in vivo.
Data set [10] can be described thus: Apparent permeability of the compound at 20 uM incubated at 20 degC for 5 hrs in 2% DMSO containing PBS buffer solution by PAMPA assay. In kind it is physicochemical.
The nature of data set [11]: Permeability of the compound assessed as mass balance at 20 uM incubated at 20 degC for 5 hrs in 2% DMSO containing PBS buffer solution by PAMPA assay. In kind it is ADME. The note with it: read-out: Activity.
Data set [12] in a line: Drug metabolism in human liver microsomes assessed as phase-2 metabolism measured by glucuronidation level at 5 uM in presence of UDPGA after 2 hrs at 37 degC. Format: ADME. The note with it: read-out: Drug metabolism.
Data set [13] can be described thus: Mean residence time in rat at 1 mg/kg. In kind it is ADME, organism-based. The note with it: in vivo. Further details: dose 1 mg/kg.
Data set [14] in a line: AUC (0 to infinity) in rat at 1 mg/kg. Details: time infinity, dose 1 mg/kg. The note with it: plasma. In kind it is ADME, organism-based.
Data set [15] in a line: Thermodynamic solubility in pH 7.4 buffer after 24 hrs at 37 degC. Format: physicochemical. The note with it: read-out: Therm_solubility.
Data set [16] is described as follows: Dissociation constant, basic pKa of the compound by potentiometric assay. Format: physicochemical.
Data set [17] can be described thus: Thermodynamic solubility in pH 1.0 buffer after 24 hrs at 37 degC. The note with it: read-out: Therm_solubility. In kind it is physicochemical.
Data set [18] can be described thus: Dissociation constant, acidic pKa of the compound by potentiometric assay. In kind it is physicochemical.
Data set [19] can be described thus: Antagonist activity at CRTh2 receptor in human eosinophil assessed as inhibition of PGD2-induced cell shape change.
Data set [20] is described as follows: Oral bioavailability in rat at 10 mg/kg. The note with it: in vivo. In kind it is ADME, organism-based.
Data set [21] is described as follows: Drug metabolism in rat liver microsomes at 5 uM in presence of NADPH after 30 mins at 37 degC. Format: ADME. The note with it: read-out: Drug metabolism.

In the case of `CCN(Cc1cc(C(F)(F)F)ccc1-c1cc(CC(=O)O)cn2nccc12)C(=O)C1CC1`, in data set [1], the IC50 turned out to be 247 nM.

Take `CCN(Cc1cc(C(F)(F)F)ccc1-c1cc(CC(=O)O)cn2ccnc12)C(=O)C1CC1`: the IC50 in data set [1] was determined as 159 nM. The compound also displayed a T1/2 in data set [2] of 0.7 h.

Compound `CCN(Cc1cc(C(F)(F)F)ccc1-c1cc(CC(=O)O)ccc1OC)C(=O)C1CC1` came in with a clearance in data set [3] of 6.9 mL/min/kg. Besides, the half-life in [4] is 5.9 h. The Vd in data set [5] came to 2 L/kg. The logD in data set [6] amounted to 0.6. The figures for the metabolised at 2 h, 5 µM in data set [7] and in [12] were 21% and 28%, respectively. For the same compound, in data set [8], the metabolised at 0.5 h, 5 µM was below 5%. Besides, in data set [1], the IC50 worked out at 16 nM. In addition, the Cmax in data set [9] was 1530 ng/mL. The Papp at 5 h, 20 µM in [10] was 1.5 ×10⁻⁶ cm/s. In [11], the recovery at 5 h, 20 µM was 91%. In [13], this compound showed an MRT of 4.7 h. In [14], this compound gave an AUC(0-inf) of 2420 ng·h/mL.

Consider `CCN(Cc1cc(C(F)(F)F)ccc1-c1cc(CC(=O)O)cn2cnnc12)C(=O)C1CC1`, for which the IC50 in data set [1] stood at 398 nM.

`CCN(Cc1cc(C(F)(F)F)ccc1-n1cc(CC(=O)O)c2cccnc21)C(=O)C1CC1`: the clearance in data set [3] stood at 19 mL/min/kg. For the same compound, the solubility thermodynamic at 24 h in data set [15] and in data set [17] was above 1000 µg/mL in each case. Besides, in data set [4], the half-life was 5.3 h. In addition, the Vd in data set [5] is 3.9 L/kg. Besides, the logD in data set [6] is 0.5. In [7], the metabolised at 2 h, 5 µM was 6%. The pKa in data set [16] was found to be 4.2; in [18], 2.4. The Cmax in data set [9] is 926 ng/mL. In addition, the Papp at 5 h, 20 µM in data set [10] came to 1.1 ×10⁻⁶ cm/s. Further, the recovery at 5 h, 20 µM in data set [11] was 80%. This compound also displayed an MRT in data set [13] of 3.4 h. In addition, in data set [14], the AUC(0-inf) was 885 ng·h/mL.

For the compound `CCN(Cc1cc(C(F)(F)F)ccc1-c1cn(CC(=O)O)c2cccnc12)C(=O)C1CC1`, the solubility thermodynamic at 24 h in [15] and in data set [17] was above 1000 µg/mL throughout. For the same compound, the pKa came to 5.6 in [16] and 2.5 in data set [18].

As for `CCN(Cc1cc(C(F)(F)F)ccc1-n1cc(CC(=O)O)c2ccccc21)C(=O)C1CC1`, the IC50 in data set [19] came out at 84 nM.

In the case of `CCN(Cc1cc(C(F)(F)F)ccc1-c1nc(CC(=O)O)c2ccccn12)C(=O)C1CC1`, the pKa was 4.8 in data set [16] and 3 in data set [18]. Moreover, the IC50 in [1] turned out to be 82 nM. In addition, in data set [17], the solubility thermodynamic at 24 h is above 1000 µg/mL. Moreover, the T1/2 in data set [2] stood at 0.7 h.

With `CCN(Cc1cc(C(F)(F)F)ccc1-c1cc(CC(=O)O)cc2cnn(C)c12)C(=O)C1CC1`, the IC50 in [1] is 48 nM. Besides, the T1/2 in [2] stood at 1.4 h.

`CCN(Cc1cc(C(F)(F)F)ccc1-c1cc(CC(=O)O)c2cccn2c1)C(=O)C1CC1`: the IC50 in data set [1] turned out to be 262 nM.

`CCN(Cc1cc(C(F)(F)F)ccc1-c1cn(CC(=O)O)c2ccccc12)C(=O)C1CC1`: the clearance in data set [3] worked out at 30 mL/min/kg. Further, the solubility thermodynamic at 24 h in data set [15] was above 1000 µg/mL; in data set [17] it was below 1 µg/mL. Besides, the half-life in [4] is 1.5 h. Besides, the Vd in data set [5] worked out at 2.9 L/kg. In data set [6], this compound yielded a logD of 1.4. Besides, the metabolised at 2 h, 5 µM in data set [7] amounted to 32%. The bioavailability in data set [20] was 46%. The highest level in [9] (Cmax) was 571 ng/mL. Also, the Papp at 5 h, 20 µM in data set [10] was 0.6 ×10⁻⁶ cm/s. The recovery at 5 h, 20 µM in [11] was found to be 71%. The MRT in [13] is 1.6 h. Further, the T1/2 in [2] turned out to be 4 h. The AUC(0-inf) in [14] was 559 ng·h/mL. The metabolised at 0.5 h, 5 µM in data set [21] is below 5%.

In the case of `CCN(Cc1cc(C(F)(F)F)ccc1-c1cc(CC(=O)O)c2ccnn2c1)C(=O)C1CC1`, the 50% inhibitory concentration (IC50) in data set [1] amounted to 123 nM. This compound also returned a T1/2 in [2] of 0.2 h.

`CCN(Cc1cc(C(F)(F)F)ccc1-c1cc(CC(=O)O)c2ccncn12)C(=O)C1CC1` registered a T1/2 in data set [2] of 1.5 h.

On to `CCN(Cc1cc(C(F)(F)F)ccc1-c1cn(CC(=O)O)c2ccncc12)C(=O)C1CC1`, for which the values for the pKa in data set [16] and in data set [18] were 7.8 and 2.4, respectively. Also, the IC50 in [1] stood at 43 nM. The T1/2 in [2] was 1.1 h.

In the case of `CCN(Cc1cc(C(F)(F)F)ccc1-c1cc(CC(=O)O)cc2cn(C)nc12)C(=O)C1CC1`, the IC50 in data set [1] amounted to 48 nM. The T1/2 in [2] turned out to be 1.2 h.

As to `CCN(Cc1cc(C(F)(F)F)ccc1-c1nn(CC(=O)O)c2ccccc12)C(=O)C1CC1`, the clearance in data set [3] stood at 38 mL/min/kg. Further, the solubility thermodynamic at 24 h in data set [15] was above 1000 µg/mL; in [17], below 1 µg/mL. Also, the half-life in [4] was 2.4 h. Moreover, the Vd in data set [5] was found to be 5.4 L/kg. In [6], the logD was found to be 0.8. Besides, the metabolised at 2 h, 5 µM is 12% in data set [7] and 35% in data set [12]. In addition, the metabolised at 0.5 h, 5 µM in data set [8] and in data set [21] was below 5% throughout. The IC50 in data set [19] amounted to 47 nM. The same compound gave a Cmax in data set [9] of 550 ng/mL. Moreover, the Papp at 5 h, 20 µM in data set [10] came to 0.18 ×10⁻⁶ cm/s. In [11], the recovery at 5 h, 20 µM was found to be 81%. Also, the pKa in [18] was found to be 2.8. In addition, the MRT in [13] turned out to be 2.4 h. Moreover, the T1/2 in [2] turned out to be 1.6 h. This compound also had an AUC(0-inf) in [14] of 440 ng·h/mL.

As to `CCN(Cc1cc(C(F)(F)F)ccc1-c1cc(CC(=O)O)n2cccnc12)C(=O)C1CC1`, the solubility thermodynamic at 24 h in [15] and in data set [17] was above 1000 µg/mL each time. Further, the pKa in [16] amounted to 1.7; in data set [18], 3.7. Moreover, in data set [19], the IC50 came out at 1.4 nM.
